The text below walks through data of ChEMBL document CHEMBL3997765 (Medchemcomm, 2016).

The target in assay [1] is T1, Mitogen-activated protein kinase 14 (Homo sapiens, UniProt Q16539). As to the kind of experiment: Inhibition of full length recombinant human GST-tagged p38alpha expressed in Escherichia coli at 10 uM using Ser/Thr04 peptide as substrate in presence of inactive MAPKAPK2 after 1 hr by FRET assay relative to control.
Assay [2] concerns the target T1, Mitogen-activated protein kinase 14. As to the kind of experiment: Inhibition of full length recombinant human GST-tagged p38alpha expressed in Escherichia coli by Z'-Lyte assay.
Assay [3] has the same target. As to the kind of experiment: Inhibition of p38alpha phosphorylation in human U266 cells at 10 uM after 3 hrs by western blot analysis. Type of assay: cell-based.
For assay [4] the target is unchanged. As to the kind of experiment: Inhibition of p38alpha phosphorylation in human MM1S cells after 3 hrs by western blot analysis. In kind it is cell-based.

Molecules are shown by their SMILES. Calls of active or inactive are those of the source. No cut-off for these calls is given here.

T1 sequence (Q16539 whole entry): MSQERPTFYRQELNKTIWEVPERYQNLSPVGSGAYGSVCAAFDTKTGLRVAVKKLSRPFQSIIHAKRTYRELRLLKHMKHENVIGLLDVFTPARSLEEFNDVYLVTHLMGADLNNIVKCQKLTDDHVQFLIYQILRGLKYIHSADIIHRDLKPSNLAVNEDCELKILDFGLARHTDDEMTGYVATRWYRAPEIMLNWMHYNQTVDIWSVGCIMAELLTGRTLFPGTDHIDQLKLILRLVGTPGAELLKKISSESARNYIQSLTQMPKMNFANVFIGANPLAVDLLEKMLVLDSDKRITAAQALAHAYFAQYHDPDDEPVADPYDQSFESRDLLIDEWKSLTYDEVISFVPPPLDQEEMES

On to `Cc1ccc2c(c1)C(Cc1ccccc1)=Nc1c(NCc3ccccc3)ncnc1S2`, for which the inhibition in assay [1] came out at 19%.
As to `Cc1ccc(C2=Nc3c(NC4CCCCC4)ncnc3Sc3ccc(Cl)cc32)cc1`, the inhibition in assay [1] was determined as 11%.
Still for that read-out and setting: with `Cc1ccc2c(c1)C(Cc1ccccc1)=Nc1c(NC3CCCCC3)ncnc1S2` the figure was 29%.
The same measure, in the same setting: with `CCCCNc1ncnc2c1N=C(c1ccccc1)c1cc(C)ccc1S2` the figure was -4%; with `Cc1ccc2c(c1)C(c1ccc(F)cc1)=Nc1c(N)ncnc1S2`, 4%.
On the same count and under the same terms, with `Cc1ccc(Sc2ncnc3c2N=C(c2ccc(F)cc2)c2cc(C)ccc2S3)cc1` the figure was 0%.
On to `Cc1ccc(C2=Nc3c(ncnc3[S+]([O-])c3ccc(C)cc3)Sc3ccc(C)cc32)cc1` (stereo unspecified), for which the inhibition in assay [1] was 88%.
Take `Clc1ccc(Sc2ncnc3c2N=C(c2ccccc2)c2cc(Cl)ccc2S3)cc1`: the inhibition in assay [1] stood at 3%.
For `COc1ccc(Sc2ncnc3c2N=C(Cc2ccccc2)c2cc(OC)ccc2S3)cc1`, the inhibition in assay [1] is 10%.
Turning to `Cc1ccc2c(c1)C(c1cccnc1)=Nc1c(NCc3ccccc3)ncnc1S2`, in assay [1], the inhibition came to 18%.
Same read-out and setting: as for `CCCCNc1ncnc2c1N=C(c1ccccc1)c1cc(Cl)ccc1S2`, the figure is -6%.
Same read-out and setting: with `O=[N+]([O-])c1ccccc1C1=Nc2c(Sc3ccccc3)ncnc2Sc2ccccc21` the figure was 63%.
Regarding `COc1ccc(Sc2ncnc3c2N=C(c2ccc(C)cc2)c2cc(OC)ccc2S3)cc1`, in assay [1], the inhibition was determined as 30%.
The same measure, in the same setting: with `c1ccc(Sc2ncnc3c2N=C(c2ccccc2)c2ccccc2S3)cc1` the figure was 18%.
On the same count and under the same terms, with `Cc1ccc(Sc2ncnc3c2N=C(Cc2ccccc2)c2cc(C)ccc2S3)cc1` the figure was 1%; with `Fc1ccc(C2=Nc3c(Sc4ccccc4)ncnc3Sc3ccccc32)cc1`, 7%; with `Cc1ccc(C2=Nc3c(NCc4ccccc4)ncnc3Sc3ccc(Cl)cc32)cc1`, -2%.
Consider `Cc1ccc(C2=Nc3c(ncnc3[S+]([O-])c3ccc(Cl)cc3)Sc3ccc(Cl)cc32)cc1` (stereo unspecified), for which the inhibition in assay [1] stood at 99%.
Turning to `Cc1ccc(C2=Nc3c(Sc4ccc(Cl)cc4)ncnc3Sc3ccc(Cl)cc32)cc1`, in assay [1], the inhibition turned out to be 4%.
On the same count and under the same terms, as for `Cc1ccc(Sc2ncnc3c2N=C(c2cccnc2)c2cc(C)ccc2S3)cc1`, the figure is 4%.
Regarding `c1ccc(Sc2ncnc3c2N=C(c2cccnc2)c2ccccc2S3)cc1`, the IC50 in assay [2] is 1250 nM. For the same molecule, the inhibition in assay [1] worked out at 98%.
Regarding `CCCC1=Nc2c(Sc3ccccc3)ncnc2Sc2ccccc21`, the inhibition in assay [1] was 11%.
On the same count and under the same terms, with `Cc1ccc2c(c1)C(c1ccc(F)cc1)=Nc1c(NCCO)ncnc1S2` the figure was -3%; with `c1ccc(CC2=Nc3c(Sc4ccccc4)ncnc3Sc3ccccc32)cc1`, 9%.
On to `CCCC1=Nc2c(Sc3ccc(C)cc3)ncnc2Sc2ccc(C)cc21`, for which the inhibition in assay [1] worked out at 16%.
Same read-out and setting: with `Cc1ccc(S(=O)(=O)c2ncnc3c2N=C(c2ccccc2)c2cc(C)ccc2[S+]3[O-])cc1` (stereo unspecified) the figure was 100%; with `Cc1ccc([S+]([O-])c2ncnc3c2N=C(c2ccccc2)c2cc(C)ccc2S3)cc1` (stereo unspecified), 95%.
`[O-][S+](c1ccc(Cl)cc1)c1ncnc2c1N=C(c1ccccc1)c1cc(Cl)ccc1S2` (stereo unspecified): the concentration for half-maximal inhibition (IC50) in assay [2] worked out at 855 nM. The inhibition in assay [1] stood at 98%.
On to `Cc1ccc(C2=Nc3c(ncnc3S(=O)(=O)c3ccc(C)cc3)[S+]([O-])c3ccc(C)cc32)cc1` (stereo unspecified), for which the IC50 in assay [2] is 42.7 nM. The inhibition entry in assay [3] was “Active”. In addition, the inhibition entry in assay [4] was “Dose-dependent effect”; in assay [1] it was 100%.
As for `Clc1ccc(Sc2ncnc3c2N=C(Cc2ccccc2)c2cc(Cl)ccc2S3)cc1`, the inhibition in assay [1] was found to be 0%.
For the molecule `CCCC1=Nc2c(ncnc2[S+]([O-])c2ccccc2)Sc2ccccc21` (stereo unspecified), in assay [2], the IC50 was 969 nM. Moreover, the inhibition in assay [1] is 73%.
`CCCC1=Nc2c(NCc3ccccc3)ncnc2Sc2ccccc21`: the inhibition in assay [1] is 5%.
For `Cc1ccc(Sc2ncnc3c2N=C(c2ccccc2)c2cc(C)ccc2S3)cc1`, the inhibition in assay [1] turned out to be 12%.
Same read-out and setting: with `c1ccc(C2=Nc3c(ncnc3N3CCCC3)Sc3ccccc32)cc1` the figure was -4%.
As to `Cc1ccc([S+]([O-])c2ncnc3c2N=C(c2cccnc2)c2cc(C)ccc2S3)cc1` (stereo unspecified), the inhibition in assay [1] worked out at 100%.
